{"source": "patent US4443619A", "about": "“Chlorocitric acids” (Hoffmann-La Roche Inc., priority 1981, dated 1984)", "key": {"Fatty Acid Synthesis": {"system": "Fatty Acid Synthesis", "assay": "Fatty acid synthesis in pair-feeding experiments in rats (Example 24)", "format": "in vivo, female rats of the Charles River CD strain", "settings": "2.63 mmoles/kg", "protocol": "Female rats of the Charles River CD strain (Charles River Breeding Laboratories, Wilmington, Mass.) weighing 120-160 g (ca. […] old) were housed individually in wire-bottomed cages in a temperature-regulated (22 C.), light-controlled room (12 hour light 6 A.M.-6 P.M., and dark 6 P.M.-6 A.M.). They had free access to water and were fed a commercial diet (Purina Rodent Chow, Ralston Purina Co., St. Louis, Mo.) ad libitum for at least 1 week prior to the experiment. Animals were fasted 48 hours, then meal-fed a synthetic diet (G-70) daily from 8-11 A.M. for the remainder of the experiment. Food consumption and body weight were measured during the meal-feeding period. […] Food spillage was measured daily.\nEach group consisted of 8 to 10 (140 to 160 g) rats. Food intake was monitored for a 3 day period; the animals were dosed immediately before the 3 hr meal. Pair-fed animals were fed the amount of food which the drug treated groups ate on the previous days (days 2 and 3).\nImmediately after the 3 hour feeding period, rats were administered intravenously a 0.25 ml saline (pH 7.4 to 7.6) solution with the following composition: 12.3 mg alanine, 5 μCi [^14 C] alanine (specific activity=156 mCi/mmole), 30.6 mg-ketoglutarate (as an amine acceptor for transaminase) and 1 mCi [^3 H] water (specific activity=100 mCi/g). […] [^3 H] Water was employed to determine the total rate of lipogenesis, since tritium is incorporated into fatty acids independent of the source of carbon precursors. Animals were killed by decapitation and blood collected in centrifuge tubes 30 minutes after the radioactive pulse, unless otherwise indicated. The specific radioactivity of the body water of each rat was determined by counting a diluted serum aliquot in 10 ml following cocktail: toluene (2.41), 2-methoxyethanol (1.61), naphthalene (320 g), and BBOT (2,5-bis-2-(5-tert-butylbenzoxazolyl)-thiophene, 16 g). Liver, and small intestine was excised rapidly, weighed, and homogenized in 15 ml H2 O in a Virtis 45 Macro Homogenizer for 15 sec at ca. 30,000 rpm. Duplicate 3 ml aliquots of whole homogenates were saponified, extracted, and the absolute radioactivity (dpm) determined. Liver lipids were extracted totally or separated into fatty acids and cholesterol by anion exchange chromatography. It was determined by anion exchange chromatography that the total lipid extract of liver contained fatty acids (96-97%) and cholesterol (3-4%). Data are expressed as nmoles [^14 C] alanine or μ moles [^3 H] water converted into lipid/g tissue/30 minutes. The nmoles [^14 C] alanine were calculated according to the injected load of alanine, as reported previously by A. C. Sullivan et al., Arch. Biochem. and Biophys., 150, 183 (1972). The μ moles [^3 H] water were determined as described previously by A. C. […]"}, "Stomach Emptying": {"system": "Stomach Emptying", "assay": "Effect on stomach emptying ([14C]glucose load) in rats (Example 25)", "format": "in vivo", "settings": "0.33 mmoles/kg oral, 60 min after [14C]glucose load, mean ± S.E.", "protocol": "Rats were trained to consume a 3 hr 70% glucose meal from 8 a.m. to 11 a.m. daily. On the experimental day, compounds were administered orally by intubation 30 min before a [^14 C]glucose load was given also by intubation. […] Sixty minutes later the rats were killed by decapitation; blood and stomachs were collected on ice.\nData are expressed as follows: dpm×10^3 per ml of serum and dpm×10^3 per stomach."}, "[1]": {"assay": "Comparative anorectic activity: food consumption in meal-fed rats (acute, Example 13)", "format": "in vivo, Charles River female rats", "settings": "3 hr meal, mean ± S.E.", "protocol": "Charles River female rats (Charles River Breeding Laboratories, Wilmington, Mass.), weighing 150 to 175 g, were individually housed in wire-bottomed cages in a temperature-regulated (22° C.) light-controlled room (12 hr light, 6 a.m. to 6 p.m. and 12 hr dark, 6 p.m. to 6 a.m.). Animals were fasted 48 hr, then meal-fed the 70% glucose diet described by A. C. Sullivan, et al., J. Nutrition, 101, 265 (1971) from 8 to 11 a.m. Following 5 to 13 days alimentation on the meal-feeding regimen, rats were dosed with the appropriate compounds orally by intubation 1/2 hr before the 3 hr meal. Food cups were weighed immediately after the meal. The control group consists of 31 rats while each drug treated group consists of 5 to 12 rats.\nThe G-70 diet consisted of 70% glucose, 23% vitamin-free casein, 5% Phillips and Hart salt mixture IV, 1% corn oil, 1% complete vitamin mixture, and 40 g/kg cellulose. To ensure complete uniformity, all diets were mixed with a twen-shell dry blender equipped with an itensifier bar (Patterson-Kelly Co., East Stroudsburg, Pa.)."}}, "data": [{"smiles": "O=C(O)C[C@@](O)(C(=O)O)[C@H](O)C(=O)O", "note": "[Trisodium (-)-threo-hydroxycitrate, reference compound]", "values": [{"measurement": "Fatty Acid Synthesis, 3H2O converted", "setting": "Fatty Acid Synthesis; pair-fed control 21.3 ± 2.3", "result": "14.4 ± 1.6 μmoles ^3 H2 O converted/g liv"}, {"measurement": "Fatty Acid Synthesis, [14C]alanine converted", "setting": "Fatty Acid Synthesis; pair-fed control 714 ± 86", "result": "279 ± 36 nmoles [^14 C]alanine converte"}, {"measurement": "Serum, total per ml", "setting": "Stomach Emptying", "result": "4.5 ± 0.3", "unit": "dpm × 10^3"}, {"measurement": "Stomach Contents, total per stomach", "setting": "Stomach Emptying", "result": "1973 ± 154", "unit": "dpm × 10^3"}, {"measurement": "Food consumption", "setting": "[1]; 0.33 mmoles/kg oral", "result": "11.5 ± 0.7", "unit": "g"}, {"measurement": "Food consumption", "setting": "[1]; 0.66 mmoles/kg oral", "result": "9.0 ± 0.6", "unit": "g"}, {"measurement": "Food consumption", "setting": "[1]; 1.32 mmoles/kg oral", "result": "9.9 ± 1.0", "unit": "g"}, {"measurement": "Food consumption", "setting": "[1]; 2.63 mmoles/kg oral", "result": "8.9 ± 0.8", "unit": "g"}]}]}
